Reference: patent US8124793B2, “Derivatives of ethylene methanedisulfonate as cancer chemotherapeutic agents” (priority 2007, dated 2012)

How the values were obtained:
Format in all cases: cell-based
RPMI-8226 = experiment: NCI screen, growth of human tumor cells: Leukemia RPMI-8226; conditions: RPMI-8226 (Leukemia), 10^−4 molar
Summary of the method: (§1)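 Growth of human tumor cells, expressed as percent, was determined in the NCI screen. Test data list the cancer type and the molar concentration applied.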

NCI-H522 = experiment: NCI screen, growth of human tumor cells: Non-Small Cell Lung NCI-H522; conditions: NCI-H522, 10^−4 molar
Summary of the method: as §1

HOP-62 = experiment: NCI screen, growth of human tumor cells: Non-Small Cell Lung HOP-62; conditions: HOP-62, 10^−4 molar
Summary of the method: as §1

HCC-2998 = experiment: NCI screen, growth of human tumor cells: HCC-2998 (listed under Non-Small Cell Lung); conditions: HCC-2998, 10^−4 molar
Procedure: (§2) In the NCI screening process, each compound was tested and described by a minimum of 60 data points. The test data include, but are not limited to the type of cancer, the molar concentration used in the screen, and the percent growth of the cancer. In some cases, NMR and elemental analysis were used for structural assignment.

UACC-62 = experiment: NCI screen, growth of human tumor cells: Melanoma UACC-62
Summary of the method: as §1

OVCAR-5 = experiment: NCI screen, growth of human tumor cells: Ovarian Cancer OVCAR-5; conditions: OVCAR-5, 10^−4 molar
Summary of the method: as §1

SF-539 = experiment: NCI screen, growth of human tumor cells: CNS Cancer SF-539
Summary of the method: as §1

CAKI-1 = experiment: NCI screen, growth of human tumor cells: Renal Cancer CAKI-1; conditions: CAKI-1 (Renal Cancer), 10^−4 molar
Summary of the method: as §1

SK-MEL-28 = experiment: NCI screen, growth of human tumor cells: Melanoma SK-MEL-28; conditions: SK-MEL-28, 10^−4 molar
Summary of the method: as §1

human cancer cells = experiment: NCI screen summary over the cancers tested (negative growth of human cancer cells); conditions: cancers with negative growth / cancers tested
Procedure: as §2
The derivatives in the tables are grouped using the same category as in the tables 1-6.

786-0 = experiment: NCI screen, growth of human tumor cells: Renal Cancer 786-0
Procedure: as §2

KM12 = experiment: NCI screen, growth of human tumor cells: Colon Cancer KM12; conditions: KM12 (Colon Cancer), 10^−4 molar
Summary of the method: as §1

HT29 = experiment: NCI screen, growth of human tumor cells: Colon Cancer HT29; conditions: HT29 (Colon Cancer), 10^−4 molar
Procedure: as §2

OVCAR-4 = experiment: NCI screen, growth of human tumor cells: Ovarian Cancer OVCAR-4; conditions: OVCAR-4 (Ovarian Cancer), 10^−4 molar
Summary of the method: as §1

MOLT-4 = experiment: NCI screen, growth of human tumor cells: Leukemia MOLT-4; conditions: MOLT-4 (Leukemia), 10^−4 molar
Summary of the method: as §1

MALME-3M = experiment: NCI screen, growth of human tumor cells: Melanoma MALME-3M; conditions: MALME-3M, 10^−4 molar
Summary of the method: as §1

SK-OV-3 = experiment: NCI screen, growth of human tumor cells: Ovarian Cancer SK-OV-3; conditions: SK-OV-3 (Ovarian Cancer), 10^−4 molar
Procedure: as §2

CCRF-CEM = experiment: NCI screen, growth of human tumor cells: Leukemia CCRF-CEM; conditions: CCRF-CEM (Leukemia), 10^−4 molar
Summary of the method: as §1

HCT-15 = experiment: NCI screen, growth of human tumor cells: Colon Cancer HCT-15; conditions: HCT-15, 10^−4 molar
Summary of the method: as §1

ACHN = experiment: NCI screen, growth of human tumor cells: Renal Cancer ACHN; conditions: ACHN
Summary of the method: as §1

SF-295 = experiment: NCI screen, growth of human tumor cells: CNS Cancer SF-295
Summary of the method: as §1

NCI-H322M = experiment: NCI screen, growth of human tumor cells: Non-Small Cell Lung NCI-H322M; conditions: NCI-H322M, 10^−4 molar
Procedure: as §2

SF-268 = experiment: NCI screen, growth of human tumor cells: CNS Cancer SF-268; conditions: SF-268 (CNS Cancer), 10^−4 molar
Summary of the method: as §1

SR = experiment: NCI screen, growth of human tumor cells: Leukemia SR; conditions: SR
Summary of the method: as §1

OVCAR-3 = experiment: NCI screen, growth of human tumor cells: Ovarian Cancer OVCAR-3; conditions: OVCAR-3 (Ovarian Cancer), 10^−4 molar
Summary of the method: as §1

HL-60 (TB) = experiment: NCI screen, growth of human tumor cells: Leukemia HL-60 (TB); conditions: HL-60 (TB) (Leukemia), 10^−4 molar
Procedure: as §2

U-251 = experiment: NCI screen, growth of human tumor cells: CNS Cancer U-251; conditions: U-251 (CNS Cancer), 10^−4 molar
Summary of the method: as §1

M14 = experiment: NCI screen, growth of human tumor cells: Melanoma M14; conditions: M14, 10^−4 molar
Summary of the method: as §1

MCF7/ADR-RES = experiment: NCI screen, growth of human tumor cells: Breast Cancer MCF7/ADR-RES; conditions: MCF7/ADR-RES (Breast Cancer), 10^−4 molar
Summary of the method: as §1

MCF 7 = experiment: NCI screen, growth of human tumor cells: Breast Cancer MCF 7; conditions: MCF 7 (Breast Cancer), 10^−4 molar
Summary of the method: as §1

COLO205 = experiment: NCI screen, growth of human tumor cells: Colon Cancer COLO205; conditions: COLO205, 10^−4 molar
Summary of the method: as §1

MDA-MB-435 = experiment: NCI screen, growth of human tumor cells: Breast Cancer MDA-MB-435; conditions: MDA-MB-435, 10^−4 molar
Summary of the method: as §1

UACC-257 = experiment: NCI screen, growth of human tumor cells: Melanoma UACC-257; conditions: UACC-257, 10^−4 molar
Summary of the method: as §1

DU-145 = experiment: NCI screen, growth of human tumor cells: Prostate Cancer DU-145; conditions: DV-145, 10^−4 molar
Summary of the method: as §1

SK-MEL-5 = experiment: NCI screen, growth of human tumor cells: Melanoma SK-MEL-5; conditions: SK-MEL-5, 10^−4 molar
Summary of the method: as §1

RXF-393 = experiment: NCI screen, growth of human tumor cells: Renal Cancer RXF-393; conditions: RXF-393 (Renal Cancer), 10^−4 molar
Summary of the method: as §1

HCT-116 = experiment: NCI screen, growth of human tumor cells: Colon Cancer HCT-116; conditions: HCT-116 (Colon Cancer), 10^−4 molar
Summary of the method: as §1

AS49/ATCC = experiment: NCI screen, growth of human tumor cells: Non-Small Cell Lung AS49/ATCC; conditions: AS49/ATCC (Non-Small Cell Lung), 10^−4 molar
Procedure: as §2

SN12C = experiment: NCI screen, growth of human tumor cells: Renal Cancer SN12C; conditions: SN12C (Renal Cancer), 10^−4 molar
Summary of the method: as §1

IGROVI = experiment: NCI screen, growth of human tumor cells: Ovarian Cancer IGROVI; conditions: IGROVI (Ovarian Cancer), 10^−4 molar
Summary of the method: as §1

BT-549 = experiment: NCI screen, growth of human tumor cells: Breast Cancer BT-549; conditions: BT-549, 10^−4 molar
Summary of the method: as §1

K562 = experiment: NCI screen, growth of human tumor cells: Leukemia K562; conditions: K562 (Leukemia), 10^−4 molar
Summary of the method: as §1

UO-31 = experiment: NCI screen, growth of human tumor cells: Renal Cancer UO-31; conditions: UO-31 (Renal Cancer), 10^−4 molar
Summary of the method: as §1

NCI-H23 = experiment: NCI screen, growth of human tumor cells: Non-Small Cell Lung NCI-H23; conditions: NCI-H23, 10^−4 molar
Summary of the method: as §1

SK-MEL-2 = experiment: NCI screen, growth of human tumor cells: Melanoma SK-MEL-2; conditions: SK-MEL-2 (Melanoma), 10^−4 molar
Summary of the method: as §1

NCI-H226 = experiment: NCI screen, growth of human tumor cells: Non-Small Cell Lung NCI-H226; conditions: NCI-H226 (Non-Small Cell Lung), 10^−4 molar
Summary of the method: as §1

EKVX = experiment: NCI screen, growth of human tumor cells: Non-Small Cell Lung EKVX; conditions: EKVX (Non-Small Cell Lung), 10^−4 molar
Summary of the method: as §1

NCI-H460 = experiment: NCI screen, growth of human tumor cells: Non-Small Cell Lung NCI-H460; conditions: NCI-H460 (Non-Small Cell Lung), 10^−4 molar
Summary of the method: as §1

CC1=C(CC2(S(=O)(=O)C(F)(F)F)S(=O)(=O)OCCOS2(=O)=O)C(=O)c2ccccc2C1=O [NSC 720682, ethylene trifluorosulfonyl-(3-methyl-1,4-naphtho-2-quinolyl)-1,1-ethanedisulfonate]
percent of growth of human tumor cells (RPMI-8226): −4%
% Growth (NCI-H522): −72%
% Growth (HOP-62): −96%
% Growth (HCC-2998): −88%
% Growth (UACC-62; UACC-62, 10^−4 molar): −73%
% Growth (UACC-62; UACC-62, 10^−5 molar): 55%
% Growth (OVCAR-5): −87%
% Growth (SF-539; SF-539, 10^−4 molar): −69%
% Growth (SF-539; SF-539, 10^−5 molar): 57%
percent of growth of human tumor cells (CAKI-1): 16%
% Growth (SK-MEL-28): −85%
Percentage of cancers showing negative growth cancers tested (human cancer cells; 10^−4 M conc.): 81%
Percentage of cancers showing negative growth cancers tested (human cancer cells; 10^−5 M conc.): 17%
% Growth (786-0; 786-0, 10^−4 molar): −20%
% Growth (786-0; 786-0, 10^−5 molar): 49%
percent of growth of human tumor cells (KM12): 20%
percent of growth of human tumor cells (HT29): −43%
percent of growth of human tumor cells (OVCAR-4): −23%
percent of growth of human tumor cells (MOLT-4): −11%
% Growth (MALME-3M): −89%
percent of growth of human tumor cells (SK-OV-3): 20%
percent of growth of human tumor cells (CCRF-CEM): −5%
% Growth (HCT-15): −72%
% Growth (ACHN; 10^−4 molar): −21%
% Growth (ACHN; 10^−5 molar): 55%
% Growth (SF-295; SF-295, 10^−4 molar): −78%
% Growth (SF-295; SF-295, 10^−5 molar): 53%
% Growth (NCI-H322M): −97%
percent of growth of human tumor cells (SF-268): 1%
% Growth (SR; 10^−4 molar): −14%
% Growth (SR; 10^−5 molar): 30%
percent of growth of human tumor cells (OVCAR-3): −42%
percent of growth of human tumor cells (HL-60 (TB)): −22%
percent of growth of human tumor cells (U-251): −36%
% Growth (M14): −90%
percent of growth of human tumor cells (MCF7/ADR-RES): 1%
percent of growth of human tumor cells (MCF 7): 1%
% Growth (COLO205): −88%
% Growth (MDA-MB-435): −86%
% Growth (UACC-257): −64%
% Growth (DU-145): −99%
% Growth (SK-MEL-5): −91%
percent of growth of human tumor cells (RXF-393): 24%
percent of growth of human tumor cells (HCT-116): 19%
percent of growth of human tumor cells (AS49/ATCC): −37%
percent of growth of human tumor cells (SN12C): −70%
percent of growth of human tumor cells (IGROVI): −18%
% Growth (BT-549): −78%
percent of growth of human tumor cells (K562): −11%
percent of growth of human tumor cells (UO-31): 29%
% Growth (NCI-H23): −68%
percent of growth of human tumor cells (SK-MEL-2): −58%
percent of growth of human tumor cells (NCI-H226): −45%
percent of growth of human tumor cells (EKVX): −36%
percent of growth of human tumor cells (NCI-H460): −59%
